Take `COCCNc1ccc(Cl)cc1`: for the setting “basic group”, the pKa – broadly, the pH at which an ionisable group is half protonated – stood at 3.3. Same read-out and setting: in the case of `C[C@@H]1CN[C@@H](C)CN1` it was 9.76. As to `N#CC(c1ccc(Cl)cc1)c1ccc([N+](=O)[O-])cc1` (stereo unspecified), the pKa (acidic group) stood at 10.7. As to `C[NH2+]CCCC(=O)O`, the pKa (acidic group) amounted to 4.03. Same read-out and setting: in the case of `COc1ccccc1O` it was 9.7.

With `Nc1cncc2ccccc12`, the pKa (basic group) came out at 6.28. As for `O=C(CCCCN1CCOCC1)c1ccccc1`, the pKa (basic group) came out at 7.5. As for `NCCCCCc1ccncc1`, the pKa (basic group) came to 10.3. `CCCC(=O)OO`: the pKa (acidic group) turned out to be 8.2. Compound `NC(=O)Cc1ccncc1` yielded a pKa (basic group) of 5.08. The compound `Cc1cc(Cc2cc(C)c(O)c(C)c2)c([O-])c([N+](=O)[O-])c1` showed a pKa (acidic group) of 11.1. On the same count and under the same terms, in the case of `O=[N+]([O-])c1cccc(O)c1[O-]` it was 11.5. Take `COc1cc(N)cc(C(=O)N[C@@H]2C[C@H]3CC[C@@H](C2)N3Cc2ccccc2)c1OC`: the pKa (basic group) is 9.07.

Where the note is “acidic group”, `O=S(=O)(Cc1ccccc1)c1ncc[nH]1` yielded a pKa of 8.67. With `c1ccc(CNc2ncnc3[nH]ncc23)cc1`, the pKa stood at 10.9 (acidic group) and 4.16 (basic group).

With `Cc1nc(N)cc(O)[nH+]1`, under “acidic group”, the pKa came to 1.7. Still for that read-out and setting: in the case of `O=C([O-])[C@H](NCC[NH2+][C@@H](C(=O)[O-])c1ccccc1[O-])c1ccccc1O` it was 10.9.

For `OC[C@@H]1O[C@H](CN2CCOCC2)[C@@H](O)[C@H](O)[C@@H]1O`, for the setting “basic group”, the pKa was found to be 6.1. As to `O=C1CCC(C(=O)O)N1` (stereo unspecified), the pKa (acidic group) amounted to 3.25. The compound `NCCCCC#CC#CCCC(=O)[O-]` yielded a pKa (basic group) of 10.5.

Take `c1cncc(-c2[nH]c3ccccc3[nH+]2)c1`: the pKa (basic group) was 1.56. Turning to `O=C(/C=N/O)/C=N/O`, the pKa (acidic group) was 7.65. As for `Cc1nc(CO)[nH]c1C`, where the note is “basic group”, the pKa was 7.88. Under “acidic group”, `O=c1ccccc(O)c1` registered a pKa of 5.4. As for `CCN(CC)S(=O)(=O)c1ccc(N)cc1`, the pKa (basic group) was 1.75. `O=C(C[n+]1ccccc1)c1ccccc1` registered a pKa (acidic group) of 10.9. Still for that read-out and setting: to `CC(C)CNC(O)=S` belongs 0.38; to `COP(=O)([O-])NS(C)(=O)=O`, 6.55.

With `CN(C)S(=O)(=O)c1ccc(NS(=O)(=O)c2ccc(N)cc2)cc1`, the pKa (acidic group) turned out to be 6.23. For `OCCc1cccnc1`, where the note is “basic group”, the pKa is 5.38. With `O/N=C/C=C/c1ccccc1`, the pKa (acidic group) was determined as 10.6. Regarding `CCCCNc1ncnc2[nH]ncc12`, the pKa reads like this: (acidic group) 11.2; (basic group) 4.67.

The compound `OCc1cccc(CO)c1O` gave a pKa (acidic group) of 9.66. For `CC(=O)n1ccnc1`, the pKa (basic group) amounted to 3.6.

Compound `NCCCCCN` registered a pKa (basic group) of 10.8.

For the setting “acidic group”, `O=C1CC(=O)NC(=S)N1` displayed a pKa of 4.15. Take `O=C([O-])c1c2ccccc2nc2ccccc12`: the pKa (basic group) stood at 5. Same read-out and setting: to `CCN(CC)Cc1cc(Br)ccc1[O-]` belongs 10.7. As to `CC/C=C/CC(=O)O`, the pKa (acidic group) was 4.52. Under “basic group”, `CC[NH+](C)CCOCCN(C)C` had a pKa of 7.96. `Nc1ccc(N)cc1` displayed a pKa (basic group) of 6.16. Regarding `O=C(O)c1csc(Br)n1`, the pKa (acidic group) was determined as 3.28. Under “basic group”, `[NH3+]c1ccccc1-c1nc2ccccc2s1` gave a pKa of -1.8. Take `COc1cc(C)nc(-n2nc(C)cc2O)n1`: the pKa (acidic group) was 6.9. Still for that read-out and setting: in the case of `CC(=O)c1ccc(O)c(O)c1` it was 7.8.

`CSCCN` came in with a pKa (basic group) of 9.41.

Under “acidic group”, `CCCCCCCCCCCCCCCCCC(=O)O` came in with a pKa of 5.01. Take `Oc1ccc(/N=N/c2ccncc2)cc1`: the pKa came to 7.73 (acidic group) and 4.65 (basic group). As for `O=C(O)c1c2ccccc2[nH+]c2ccccc12`, the pKa (acidic group) turned out to be 3. On the same count and under the same terms, to `OCC(S)CS` (stereo unspecified) belongs 8.62. Under “basic group”, `COc1c(C(=O)N[C@@H]2C[C@H]3CC[C@@H](C2)N3Cc2ccccc2)cccc1[N+](=O)[O-]` returned a pKa of 8.61. Still for that read-out and setting: to `Nc1cc[nH+]c([O-])n1` belongs 4.61; to `CN(C)c1ccncc1`, 9.7. Regarding `Cc1cc(Cl)cc(Cl)c1O`, the pKa (acidic group) came to 7.85. Under “acidic group”, `CCC(=O)OO` had a pKa of 8.1. As to `CC(C)N(c1ccccc1)C(C)C`, the pKa (basic group) worked out at 6.19. With `c1ccc2ncncc2c1`, the pKa (basic group) stood at 3.51. The compound `Cc1ccccc1CN(C)C` registered a pKa (basic group) of 8.71.

Regarding `Cc1cccc(Nc2ccccc2)c1`, under “basic group”, the pKa stood at 0.92. With `N=C1C=C(N)C(=O)c2ccccc21`, where the note is “basic group”, the pKa worked out at 8.87. Still for that read-out and setting: in the case of `NNC=O` it was 2.81. As to `O=S1(=O)N=CNc2ccncc21`, the pKa (acidic group) was 6.71. For the compound `Cc1cccc(C)c1/C(=N/CCC[NH+](C)C)c1ccccc1`, the pKa (basic group) is 3.83. Where the note is “acidic group”, `O/N=C\C=C\c1ccccc1` yielded a pKa of 10.9. `C(=C\C[NH+]1CCCCC1)/CN1CCCCC1` yielded a pKa (basic group) of 7.9. Same read-out and setting: in the case of `O=C([O-])[C@@H]1Cc2[nH]cnc2CN1` it was 8.58. As to `C[C@]1(N)C[C@@H]1N`, the pKa (basic group) amounted to 9.06. On the same count and under the same terms, to `CN(C)CCCCCCCCNC(=O)/C=N/[O-]` belongs 10.5.

`O=C(Oc1cccc(Cl)c1)C1c2ccccc2-c2ccccc21` displayed a pKa (acidic group) of 10.2. Turning to `CCNc1ncnc2c1cnn2C`, the pKa (basic group) worked out at 4.24. `CN(C)/C=N/c1ccc(Br)cc1` displayed a pKa (basic group) of 8.1. Consider `O=C(c1ccccc1)c1cccc([N+](=O)[O-])c1C(=O)O`, for which, where the note is “acidic group”, the pKa turned out to be 2.39. As to `CC(=O)c1cc[nH]n1`, for the setting “acidic group”, the pKa came out at 11.8. Where the note is “acidic group”, `N#CC(Br)C#N` showed a pKa of 5. `CSc1ncc2[nH]cnc2n1` came in with a pKa (acidic group) of 8.91 and a pKa (basic group) of 1.91. For `O=[N+]([O-])c1ccc(O)c2ncccc12`, the pKa (basic group) is 2.88. In turn, `CN(C)c1cc[nH+]cc1` displayed a pKa (basic group) of -7.78.

Turning to `NCC[NH2+]CCc1ccccc1`, under “basic group”, the pKa came to 6.59.

As for `COC(=O)C(N)Cc1c[nH]cn1` (stereo unspecified), the pKa (basic group) came out at 7.35. Where the note is “acidic group”, `C[NH+]1C[C@@H](C(=O)O)C[C@@]2(O)c3cccc4[nH]cc(c34)C[C@@H]12` returned a pKa of 3.38.

In turn, `O=C1C=C(S(=O)(=O)[O-])/C(=N\O)c2cn[nH]c21` showed a pKa (acidic group) of 8.6.

In turn, `O=S(=O)(Nc1ncc(Cl)cn1)c1ccc(O)cc1` registered a pKa (acidic group) of 5.59. Still for that read-out and setting: to `O=C(O)CCC(=O)NOCc1ccccc1` belongs 4.6. The compound `C=CCC(C)(CN(CC)CC)OC(=O)c1ccccc1` (stereo unspecified) came in with a pKa (basic group) of 7.8. `O=S(=O)(Nc1nccs1)c1ccccc1` showed a pKa (acidic group) of 5.73.

For the compound `Oc1ccccc1Cl`, the pKa (acidic group) is 8.4.

As to `CC(=O)Nc1ccc(S)cc1`, the pKa (acidic group) was 6.08.

As for `CC(C(=O)c1ccccc1)[n+]1ccccc1` (stereo unspecified), under “acidic group”, the pKa is 11.5.

Regarding `O=C(O)c1ccc2ccccc2[nH+]1`, for the setting “acidic group”, the pKa came to 1.79. For `CC(C)(/C=C/C(=O)[O-])c1cc([N+](=O)[O-])ccc1O`, the pKa (acidic group) was found to be 7.24.

In the case of `CN(C)Cc1cccc(O)c1O`, under “basic group”, the pKa is 8.01. Consider `C/C(O)=C/C(=O)O`, for which the pKa (acidic group) was found to be 4.05. Same read-out and setting: to `C=C1CC1C[C@H]([NH3+])C(=O)O` (stereo partly specified) belongs 2.4. As to `N#CCN1CCCCC1`, the pKa (basic group) was found to be 4.55.

Compound `COc1ccc(S(=O)(=O)NCCN2CCOCC2)c(OC)c1OC` came in with a pKa (basic group) of 6.16.

On to `Cc1n[nH]cc1Cl`, for which the pKa (basic group) was determined as 1.4. The same measure, in the same setting: in the case of `CCCCCCCCCCCCCNCCCCCCCCCCCCC` it was 11.

In turn, `O=C1NC(=O)C(c2ccccc2)C1=O` (stereo unspecified) displayed a pKa (acidic group) of 3.4.

On to `O=C1C(O)=C(/C=C/c2ccccc2)C(=O)c2ccccc21`, for which the pKa (acidic group) was 4.44.

`CCCCCCCCc1c(-c2ccccc2)n[nH]c1O` showed a pKa (acidic group) of 10.2.

Compound `NCCCCc1ccccn1` yielded a pKa (basic group) of 10.3.

For the setting “basic group”, `CCSC(=O)c1ccc(C)cc1` yielded a pKa of -4.2. `OC(c1ccncc1)(c1ccncc1)c1ccccn1`: where the note is “acidic group”, the pKa is 12.4. Under “basic group”, `Nc1cccc2cnccc12` had a pKa of 5.59.

With `Nc1ncc2[nH]c[nH+]c2n1`, the pKa (basic group) is -0.28. For `[O-]\N=C1/CCCC(=N\O)/C1=N/[O-]`, the pKa (acidic group) was found to be 12.2. Turning to `Nc1nc2cc3ccccc3cc2[nH]1`, the pKa (acidic group) was found to be 12.8 and the pKa (basic group) stood at 7.01. With `Cc1cc(C(C)(C)C)cc(C)c1C(=O)O`, the pKa (acidic group) is 3.44. Compound `CC(C)SC(C)C(=O)O` (stereo unspecified) registered a pKa (acidic group) of 3.78. As for `CC[C@H](C)[C@H]([NH3+])C(=O)O`, where the note is “acidic group”, the pKa was 2.31. Compound `Nc1cn[nH]c1` had a pKa (basic group) of 5.57. For the compound `Oc1ccc2c(c1)ncc1ccccc12`, the pKa came to 8.79 (acidic group) and 4.82 (basic group). Compound `NCc1ccc(F)c([O-])c1` registered a pKa (basic group) of 10. For `CCOCCN(C)c1ccccc1`, the pKa (basic group) turned out to be 4.8. Regarding `N#CS`, for the setting “acidic group”, the pKa came out at 0.85. In turn, `CCC(N)C(=O)[O-]` (stereo unspecified) displayed a pKa (basic group) of 9.67. `c1ccc(CN(Cc2ccccc2)Cc2ccccc2)cc1` returned a pKa (basic group) of 7.44. Consider `CC(C)(S)C(C(=O)[O-])n1ccnc1Cc1ccccc1` (stereo unspecified), for which the pKa reads like this: (acidic group) 10.5; (basic group) 7.

Turning to `Nc1cc(N)c2cccnc2c1O`, the pKa is 10.8 (acidic group) and 6.96 (basic group). `O=C(O)c1cc(-c2ccccc2)n[nH+]c1NCC[NH+]1CCOCC1`: the pKa (acidic group) stood at 1.1.

`O=C([O-])CCc1c[nH]cn1` gave a pKa (basic group) of 7.55. On to `CC(=O)C(=O)CC(=O)C(C)=O`, for which the pKa (acidic group) worked out at 4.68. On the same count and under the same terms, to `CC[NH+](CC)CC(=N\O)/C(C)=N/O` belongs 8.5.

`Cc1ccccc1/C(=N\CCCN(C)C)c1ccccc1Cl` had a pKa (basic group) of 8.95.

The compound `C[NH+](C)CCCCNC(=O)/C=N/O` came in with a pKa (acidic group) of 8.81. Take `Cc1cc(=O)oc2cc(O)ccc12`: where the note is “acidic group”, the pKa stood at 7.8. `Nc1cccc2nccnc12`: the pKa (basic group) was found to be 2.62. For the compound `O=C(O)c1cscn1`, the pKa (acidic group) turned out to be 3.64 and the pKa (basic group) was 2.9.

As for `Oc1cc(-c2ccccc2)nn1-c1ccccc1`, under “acidic group”, the pKa was determined as 12.2. For the compound `C[n+]1ccn(CCC[n+]2ccc(/C=N/O)cc2)c1`, the pKa (acidic group) was 8.05. Consider `NC[C@@H](O)[C@H]1NC(N)=[NH+][C@@H]1C(=O)[O-]`, for which the pKa (basic group) was found to be 9.3. The same measure, in the same setting: in the case of `NC(=O)/C=C(\O)c1ccccn1` it was 8.23. As to `CC(=O)OCC(=N/O)/C(C)=N/O`, the pKa (acidic group) was 9.7. In the case of `CCCc1ncnc2c(O)cccc12`, the pKa (acidic group) came out at 8.82. For the compound `NC(=S)C(N)Cc1ccccc1` (stereo unspecified), where the note is “basic group”, the pKa worked out at 7.15. Compound `O=C(O)c1ncccn1` gave a pKa (acidic group) of 2.85 and a pKa (basic group) of -1.13.

These data come from the pKa sets of Baltruschat and Czodrowski (2020).
